How the values were obtained:
Experiment in all cases: Determination of the minimum inhibitory concentration (MIC value) in microtitre plates
[1] = tested on: C. albicans; assay type: cell-based, Candida albicans ATCC 10231; details: optical density at 620 nm, 48 hours at 37° C., MIC = ≦20% growth; tested at 100; 10 and 1 ppm (approximate values); (2), (3), (4) at 120; 60; 30; 15; 7.5; 3.75 ppm
Experimental: (§1) Determination of the Minimum Inhibitory Concentration (MIC Value) in Microtitre Plates Nutrient Medium Casein/soybean flour/peptone bouillon for the preparation of preliminary cultures of the test bacteria and yeast. Mycological slant agar for the preliminary culture of moulds Examples of Test Microbes: Yeast: Candida albicans ATCC 10231 Procedure: The test substances are pre-dissolved in dimethyl sulfoxide (DMSO) and tested in a series of dilutions of 1:2. Bacteria and yeast are cultured overnight in CASO bouillon; the mould is cultured on myco-logical slant agar and sponged off with 10 ml of 0.85% sodium chloride solution (+0.1% Triton X-100). All the test microbes are adjusted to a germ count of 1−5×10^6 KBE/ml using 0.85% sodium chloride solution. The test substances are pre-pipetted into microtitre plates in an amount of 8 μl per well. Pre-diluted microbe suspensions are diluted 1:100 in CASO bouillon (bacteria and yeast) or Sabouraud 2% glucose bouillon (mould) and added to the test substances in an amount of 192 μl per well. The test batches are incubated for 48 hours at 37° C. (bacteria and yeast) or for 5 days at 28° C. (mould). After incubation, the growth is determined by means of the clouding of the test batches (optical density) at 620 nm in a microplate reader. The concentration of substance at which (compared with the growth control) a marked inhibition of growth (≦20% growth) of the test microbes can be observed is given as the minimum inhibitory concentration (MIC value). One microtitre plate is used per test microbe and substance concentration. All substances are tested in duplicate.

[2] = tested on: S. aureus; assay type: cell-based; details: optical density at 620 nm, 48 hours at 37° C., MIC = ≦20% growth; tested at 100; 10 and 1 ppm (approximate values); (2), (3), (4) at 120; 60; 30; 15; 7.5; 3.75 ppm
Excerpt: as §1, with “Bacteria: Staphylococcus hominis DMS 20328” for “Yeast: Candida albicans ATCC 10231”

[3] = tested on: E. coli; assay type: cell-based, Escherichia coli NCTC 8196; details: optical density at 620 nm, 48 hours at 37° C., MIC = ≦20% growth; tested at 100; 10 and 1 ppm (approximate values); (2), (3), (4) at 120; 60; 30; 15; 7.5; 3.75 ppm
Experimental: as §1, with “Bacteria: Escherichia coli NCTC 8196” for “Yeast: Candida albicans ATCC 10231”

[4] = tested on: P. aeruginosa; assay type: cell-based, Pseudomonas aeruginosa CIP A-22; details: optical density at 620 nm, 48 hours at 37° C., MIC = ≦20% growth; tested at 100; 10 and 1 ppm (approximate values); (2), (3), (4) at 120; 60; 30; 15; 7.5; 3.75 ppm
Experimental: as §1, with “Bacteria: Pseudomonas aeruginosa CIP A-22” for “Yeast: Candida albicans ATCC 10231”

[5] = tested on: A. niger; assay type: cell-based, Aspergillus niger ATCC 6275; details: optical density at 620 nm, 5 days at 28° C., MIC = ≦20% growth; tested at 100; 10 and 1 ppm (approximate values); (2), (3), (4) at 120; 60; 30; 15; 7.5; 3.75 ppm
Experimental: as §1, with “Mould: Aspergillus niger” for “Yeast: Candida albicans”, “6275” for “10231”

CCOc1cc(/C=C/c2nc(-c3ccc(F)cc3)cs2)ccc1O [Compound of formula (7)]
>100 ppm: MIC values in ppm C. albicans [1] | MIC values in ppm S. aureus [2] | MIC values in ppm E. coli [3] | MIC values in ppm P. aeruginosa [4] | MIC values in ppm A. niger [5]

COc1cc(/C=C/c2nc(-c3ccccc3)cs2)ccc1O [Compound of formula (54)]
>100 ppm: MIC values in ppm C. albicans [1] | MIC values in ppm S. aureus [2] | MIC values in ppm E. coli [3] | MIC values in ppm P. aeruginosa [4] | MIC values in ppm A. niger [5]

Cc1cc(/C=C/c2nc(-c3ccccc3)cs2)cc(C)c1O [Compound of formula (58)]
>100 ppm: MIC values in ppm C. albicans [1] | MIC values in ppm S. aureus [2] | MIC values in ppm E. coli [3] | MIC values in ppm P. aeruginosa [4] | MIC values in ppm A. niger [5]

CCc1csc(/C=C/c2ccc(O)cc2OC)n1 [Compound of formula (50)]
>100 ppm: MIC values in ppm C. albicans [1] | MIC values in ppm S. aureus [2] | MIC values in ppm E. coli [3] | MIC values in ppm P. aeruginosa [4] | MIC values in ppm A. niger [5]

Oc1ccccc1/C=C/c1nc(-c2ccccc2)cs1 [Compound of formula (56)]
>100 ppm: MIC values in ppm C. albicans [1] | MIC values in ppm S. aureus [2] | MIC values in ppm E. coli [3] | MIC values in ppm P. aeruginosa [4] | MIC values in ppm A. niger [5]

CCOc1cc(/C=C/c2nc(CC)cs2)ccc1O [Compound of formula (42)]
>100 ppm: MIC values in ppm C. albicans [1] | MIC values in ppm S. aureus [2] | MIC values in ppm E. coli [3] | MIC values in ppm P. aeruginosa [4] | MIC values in ppm A. niger [5]

Cc1cc(/C=C/c2nc(C(C)(C)C)cs2)cc(C)c1O [Compound of formula (23)]
>100 ppm: MIC values in ppm C. albicans [1] | MIC values in ppm S. aureus [2] | MIC values in ppm E. coli [3] | MIC values in ppm P. aeruginosa [4] | MIC values in ppm A. niger [5]

CCc1csc(/C=C/c2ccc(OC)c(O)c2)n1 [Compound of formula (41)]
>100 ppm: MIC values in ppm C. albicans [1] | MIC values in ppm S. aureus [2] | MIC values in ppm E. coli [3] | MIC values in ppm P. aeruginosa [4] | MIC values in ppm A. niger [5]

COc1cc(/C=C/c2nc(-c3ccc(N4CCCC4)cc3)cs2)ccc1O [Compound of formula (31)]
>100 ppm: MIC values in ppm C. albicans [1] | MIC values in ppm S. aureus [2] | MIC values in ppm E. coli [3] | MIC values in ppm P. aeruginosa [4] | MIC values in ppm A. niger [5]

COc1cc(O)ccc1/C=C/c1nc(-c2ccc(F)cc2)cs1 [Compound of formula (15)]
>100 ppm: MIC values in ppm C. albicans [1] | MIC values in ppm S. aureus [2] | MIC values in ppm E. coli [3] | MIC values in ppm P. aeruginosa [4] | MIC values in ppm A. niger [5]

COc1cc(O)ccc1/C=C/c1nc(C(C)(C)C)cs1 [Compound of formula (26)]
>100 ppm: MIC values in ppm C. albicans [1] | MIC values in ppm S. aureus [2] | MIC values in ppm E. coli [3] | MIC values in ppm P. aeruginosa [4] | MIC values in ppm A. niger [5]

COc1cc(O)ccc1/C=C/c1nc(-c2ccccc2)cs1 [Compound of formula (61)]
>100 ppm: MIC values in ppm C. albicans [1] | MIC values in ppm S. aureus [2] | MIC values in ppm E. coli [3] | MIC values in ppm P. aeruginosa [4] | MIC values in ppm A. niger [5]

CCc1csc(/C=C/c2cc(O)c(OC)c(OC)c2)n1 [Compound of formula (46)]
>100 ppm: MIC values in ppm C. albicans [1] | MIC values in ppm S. aureus [2] | MIC values in ppm E. coli [3] | MIC values in ppm P. aeruginosa [4] | MIC values in ppm A. niger [5]

CC(C)(C)c1csc(/C=C/c2ccc(O)cc2)n1 [Compound of formula (16)]
>100 ppm: MIC values in ppm C. albicans [1] | MIC values in ppm S. aureus [2] | MIC values in ppm E. coli [3] | MIC values in ppm P. aeruginosa [4] | MIC values in ppm A. niger [5]

COc1cc(O)ccc1/C=C/c1nc(-c2ccc(N3CCCC3)cc2)cs1 [Compound of formula (38)]
>100 ppm: MIC values in ppm C. albicans [1] | MIC values in ppm S. aureus [2] | MIC values in ppm E. coli [3] | MIC values in ppm P. aeruginosa [4] | MIC values in ppm A. niger [5]

Reference: US6624182B1, “Hydroxyphenylvinylthiazoles” (Ciba Specialty Chemicals Corporation, priority 1999, dated 2003)
